“Also recorded” adds a separate entry of the source.

Series [1] deals with normal pluripotent hematopoietic stem cells. The series can be described thus: sparing of normal pluripotent hematopoietic stem cells (rescue of lethally irradiated syngeneic hosts). The format is in vivo, mouse. The following applies: photosensitization treatment. The protocol:
(§1) When cultured F4-6 erythroleukemia cells, spleen or marrow cells from diseased animals, cell-free extracts of cultured cells, spleen cells, or marrow cells, or cell-free supernatants of F-6 cultures were injected into healthy B6D2F1 mice, the spleen weights increased from 70 mg to about 2 g within two weeks. The animals became polycythemic and, eventually, died. […] Normal pluripotent hematopoietic stem cells (as determined by the ability of photosensitized marrow cells to rescue lethally irradiated syngeneic hosts) were spared by the photosensitization treatment.

The test system of a further series is HTLV-I infected cells. Briefly: inactivation of HTLV-I infected cells. The following applies: MC 540-mediated photosensitization. The format is cell-based.
The subject of a further series is Friend virus. Briefly: Friend virus disease in mice injected with photosensitized preparations. It is filed as in vivo, B6D2F1 mice. Here is the method:
as §1

Another series deals with mature blood cells. Briefly: toxicity of photosensitization to mature blood cells. The format is cell-based, mouse. The following applies: photosensitization treatment. From the text:
4) The same treatment protocol was much less toxic to mature blood cells and normal pluripotent hematopoietic stem cells in the mouse.
(§2) The simultaneous exposure to MC 540 and visible light also appears to kill protozoan-infected red blood cells very rapidly, but normal pluripotent hematopoietic stem cells and mature blood cells very slowly. This differential sensitivity to MC 540-mediated photolysis may be useful in purging blood and red blood cells of cell-free protozoa and protozoan-infected cells thus making the blood supply safer for use.

The subject of series [2] is protozoan-infected red blood cells. Briefly: killing of protozoan-infected red blood cells. The format is cell-based. The settings on record: simultaneous exposure to MC 540 and visible light.
Description: as §2

For another series, the system named is P. yoelii YM. The series can be described thus: survival of mice injected with treated P. yoelii-infected blood. The format is in vivo. The protocol: (§3) Using the rodent malaria species, P. yoelii YM, and P. berghei berghei as model systems, the survival of mice i.v. injected with MC 540-treated and non-treated malarious blood was monitored in vivo. […] All mice receiving untreated malarious blood died rapidly. In a subsequent experiment, serial dilutions of treated (30 minutes of dye/light) or control malarious blood (30% parasitemia) were injected into recipient mice. One hundred percent of the mice receiving 10^4 treated cells survived compared to 0% of the corresponding control group. […] It is conceivable that MC 540 treatment of infected blood enhanced the immune response of the recipient mice.

In series [3] the test system is herpes simplex virus type 1 (HSV-1). Briefly: limiting dilution plaque forming assay on Vero cells (Herpes simplex 1 inactivation). It is filed as cell-based, human. From the text:
(§4) The amount of virus that could be sedimented by centrifugation was reduced 5-fold after treatment with MC 540 and light. The remaining 80% of the virus were probably lysed. The small fraction that was sedimented was visibly stained by MC 540. It is conceivable that the sedimented virus fraction, although not lysed, had sustained enough photodynamic damages to make it noninfectious. For example, when the virus is Herpes simplex 1 the order of magnitude reduction is as high as 45 times.
(§5) Experiments with human herpes simplex virus type 1 (HSV-1), and human T-cell leukemia virus type I (HTLV-I) produced similar results. […] A limiting dilution plaque forming assay on Vero cells indicated a ≥5 log reduction (limit of detection) of the virus titer after only 10 min. of illumination. The standard illumination protocol calls for 90 min. of illumination. It is thus conceivable that the titer can be reduced by ≥45 log. Infectivity assays for HTLV-I have, unfortunately, not yet been developed. We therefore used reverse transcriptase activity as an indicator of virus destruction. Photosensitized and untreated aliquots of the same virus suspension were pelleted on a sucrose cushion. The pellet of the treated aliquot was about 5 times smaller and visibly red. Its reverse transcriptase content was reduced by more than 80% (Table 1). The balance of the enzyme activity was recovered in the supernatant. More than 80% of the original virus mass was apparently damaged so extensively (virtually "dissolved") that it was no longer pelletable by a two hour spin at 100,000×g. If the photosensitization of enveloped viruses bears any resemblance to the photosensitization of cells, it is reasonable to speculate that the pelletable material was also photodamaged and perhaps no longer infective.

Series [4] in a line: Acute systemic toxicity in mice (intravenous). It is filed as in vivo, mouse (BAF1). The protocol:
The acute systemic toxicity of MC 540 was determined by injecting groups of 10 BAF1 mice intravenously with graded doses of MC 540. Survival data were plotted on a log probit scale and fitted with a least square regression line to determine LD10 and LD50 (Table 2).

Another series relates to P. berghei berghei. The series can be described thus: survival of mice injected with treated P. berghei-infected blood. The format is in vivo. The protocol:
as §3
In two experiments, all mice receiving P. berghei-infected blood (30% parasitemia), treated for 15-45 minutes with light and MC 540, died as did their control counterparts. However, 10% of the group receiving infected blood treated for 60 minutes with light and dye survived for the duration of the experiment (90 days).

Series [5] concerns human T-cell leukemia virus type I (HTLV-I) reverse transcriptase. Briefly: HTLV-I inactivation: pelletable virus and reverse transcriptase activity. It is filed as biochemical.
Description: as §4, §5

The subject of series [6] is Friend erythroleukemia virus complex. Briefly: Friend virus titer / inactivation by MC 540-mediated photosensitization. The format is cell-based. Here is the method:
The ability of MC 540 to react with enveloped (i.e. lipid-containing) viruses was tested with the Friend erythroleukemia virus complex, the human T cell leukemia virus, HTLV-I and Herpes simplex 1. Friend virus was obtained from cell-free supernatants of cultured erythroleukemia cells or as a cell-free extract from infected animals. Simultaneous exposure to MC 540 (15 ug/ml) and light (40 J/cm^2) reduced the virus titer by ≥4 logs regardless of the origin of the virus preparation.

Series [7] relates to virus-infected spleen cells, bone marrow cells, and cultured Friend erythroleukemia cells. The series can be described thus: inactivation of Friend virus-infected / transformed cells by photosensitization. The format is cell-based.
For series [8] the following is noted: comparison dye; cited from earlier work.
The nature of series [9]: illumination time reduction. The settings on record: equimolar concentrations. From the text:
An analog of MC 540 which we have labeled MC 540A (see structural formula below) reduces illumination times about 6-fold when used in equimolar concentrations. [drawing 3]
Merocyanine-mediated photolysis of tumor cells, viruses and protozoa appear to be primarily mediated by singlet oxygen. An additional 2-fold reduction in illumination time can therefore be achieved by performing the photosensitization step in the presence of deuterium oxide (D2 O).

[10] abbreviates: preparations photosensitized and exposed to light prior to injection.
Setting [11] is: MC 540-mediated photosensitization.

Broadly, the LD50 is the dose at which mortality reaches 50%. Regarding `CCCCN1C(=O)C(=CC=CC=C2Oc3ccccc3N2CCCS(=O)(=O)O)C(=O)N(CCCC)C1=S` [MC 540], in [1], the “effect on normal pluripotent hematopoietic stem cells (in words)” value is “very slowly”. Besides, in the series with HTLV-I infected cells, the “inactivation of HTLV-I infected cells (in words)” value is recorded as “rapidly inactivated”. In addition, the “inactivation of free and intracellular Friend virus and Friend virus-infected cells” value in the series on Friend virus (MC 540-mediated photolysis) is “inactivates free Friend virus, intracellular Friend virus, and Friend virus-infected cells”. Besides, the “effect of virus preparations exposed to dye or light alone” value with Friend virus (dye alone or light alone) is listed as “caused splenomegaly, polycythemia,and death”. Besides, in the series with Friend virus (setting [10]), the hematocrits entry was “remained normal”, the spleen weights result is on record as “remained normal” and the survival result was “the animals survived”. Further, in the series with mature blood cells, the “effect on mature blood cells (in words)” value is on record as “very slowly”. Moreover, the “killing of protozoan-infected red blood cells (in words)” value in series [2] is “very rapidly”. In the series on P. yoelii YM (30 minutes dye/light, 30% parasitemia, control 0%), the “survival of mice receiving 10^4 treated cells” value was “One hundred”. For the same molecule, the “survival of recipient population (P. yoelii)” value with P. yoelii YM (60 minutes dye/light, 40%-70% parasitemia) is 70%-100. Further, the “protection of recipient mice (P. yoelii)” value with P. yoelii YM (90 minutes dye and light, 40%-70% parasitemia) was “total protection”. The “protection despite exceedingly high parasitemias (P. yoelii)” value with P. yoelii YM (all stages of development) is “protection by MC 540 treatment was still obtained”. In addition, the “protection of recipient mice (P. yoelii), shorter illumination” value in the series on P. yoelii YM (shorter than 60 minutes illumination) was “partial protection”. Besides, the “course of disease in surviving mice” value in the series with P. yoelii YM (some of the surviving mice, both treatments) is listed as “initially showed severe symptoms of malaria (e.g. splenomegaly, anemia) but later recovered”. In series [3] (10 min. of illumination, limit of detection), the “virus titer reduction (HSV-1)” value is given as not below 5 log. For the same molecule, the “virus titer reduction (HSV-1), conceivable for standard protocol” value in series [3] (90 min. of illumination, extrapolated) is not below 45 log. Also, the “inactivation of Herpes simplex (in words)” value in series [3] (setting [11]) is “rapidly inactivated; also recorded: extremely susceptible”. Moreover, the LD50 in series [4] (in vivo, mouse, intravenous, log probit fit) worked out at 84 mg/kg. Besides, the “LD10 (mouse)” value in series [4] (intravenous, log probit fit) is on record as 55 mg/kg. The “acute systemic toxicity (in words)” value in [4] (mouse, in vivo) is recorded as “very low”. For the same molecule, in [4] (mouse, in vivo, iv), the “acute toxicity compared with fluorescent dyes used for angiography of the retina” value is given as “not more toxic than the fluorescent dyes that are commonly used for the angiography of the retina”. The selectivity ratio in series [4] (mouse, in vivo, iv, read-out: LD10 relative to amount injected with mouse bone marrow graft) is more than 100000. For the same molecule, the “probable cause of death after high doses (necropsy)” value in [4] (mouse, intravenous, high doses) is reported as “formation of large emboli of precipitated dye in major blood vessel”. Further, the “amount injected with photosensitized marrow graft” value in [4] (mouse, for comparison with LD10) was found to be 0.0004 mg/kg. In addition, the “outcome of mice receiving treated P. berghei-infected blood” value in the series with P. berghei berghei (15-45 minutes light and MC 540, 30% parasitemia, two experiments) is “died”. In the series with P. berghei berghei (60 minutes light and dye, 90 days), the “survival of mice receiving treated P. berghei-infected blood” value stood at 10%. Moreover, in series [5] (MC 540, light 90 min), the “HTLV-I, Reverse Transcriptase activity” value was 37,848 cpm. Also, the “HTLV-I, Reverse Transcriptase activity” value in [5] (MC 540, no light) is on record as 208,548 cpm. The “inactivation of HTLV-I (in words)” value in series [5] (setting [11]) is “rapidly inactivated; also recorded: susceptible to MC 540-mediated photosensitization”. Moreover, in series [5] (MC 540 and light), the “reduction of amount of virus sedimented by centrifugation (HTLV-I)” value was 5 fold and the “virus probably lysed (HTLV-I)” value is 80%. In series [5] (photosensitized vs untreated aliquot), the “reduction of reverse transcriptase content of pellet (HTLV-I)” value is recorded as “more than 80%”. The “pellet size reduction of treated aliquot (HTLV-I)” value in series [5] (photosensitized vs untreated aliquot, sucrose cushion) is “about 5 times smaller”. Moreover, the “original virus mass no longer pelletable (HTLV-I)” value in series [5] (two hour spin at 100,000×g) is reported as “more than 80%”. For the same molecule, in series [6] (setting [11]), the “inactivation of Friend virus suspensions (in words)” value is on record as “rapidly inactivated”. Besides, the log reduction at 15 µg/mL in [6] (light or radiation study, read-out: virus titer reduction (Friend virus)) is not below 4. In addition, in [7] (setting [11]), the “inactivation of Friend virus-transformed / infected cells (in words)” value is on record as “rapidly inactivated”. Also, the “rate of inactivation of virus-infected cells versus cell-free virus” value in series [7] (simultaneous MC 540 (15 ug/ml) and light (40 J/cm^2)) was “inactivated at about the same rate as cell-free virus preparations”.

Take `O=C1OC2(c3ccc(O)cc3Oc3cc(O)ccc32)c2ccccc21` [fluorescein]: in series [8], the “LD50 (mouse), for comparison” value is 300 mg/kg.

In the case of `CCCCN1C(=O)C(=CC=CC=C2Oc3c(ccc4ccccc34)N2CCCS(=O)(=O)O)C(=O)N(CCCC)C1=S` [MC 540A], the “reduction of illumination time versus MC 540” value in series [9] was “about 6 fold”.

The values are drawn from US5304113A, “Method of eradicating infectious biological contaminants” (The MCW Research Foundation, Inc., priority 1990, dated 1994).
